The results in this text go back to ChEMBL document CHEMBL1765071, “Single photon emission computed tomography/positron emission tomography imaging and targeted radionuclide therapy of melanoma: new multimodal fluorinated and iodinated radiotracers” (J Med Chem, 2011).

Data set [1] can be described thus: Antitumor activity against mouse B16F0 cells bearing C57B16 mouse assessed as inhibition of tumor growth doubling time at 18.5 MBq, iv administered 2 times on day 6 and 10. It is filed as functional.
The test system of data set [2] is Mus musculus. The data set can be described thus: Biodistribution in mouse B16F0 cells bearing iv dosed C57B16 mouse tumor assessed as absorption dose. Conditions: in vivo. It is filed as ADME, organism-based, Neoplasm.
Data set [3] has as its system Mus musculus. The data set can be described thus: Biodistribution in mouse B16F0 cells bearing C57B16 mouse tumor at 1.26 to 5.29 MBq, iv after 24 hrs. It is filed as ADME, organism-based, Neoplasm. As to conditions: in vivo.
The subject of data set [4] is Mus musculus. The data set can be described thus: Biodistribution in mouse B16F0 cells bearing C57B16 mouse tumor at 1.26 to 5.29 MBq, iv after 5 days. It is filed as ADME, organism-based, Neoplasm. Conditions: in vivo, 120 h.
Data set [5] has as its system Mus musculus. The data set can be described thus: Biodistribution in mouse B16F0 cells bearing C57B16 mouse tumor at 1.26 to 5.29 MBq, iv after 6 hrs. It is filed as ADME, organism-based, Neoplasm. As to conditions: in vivo.
For data set [6], the system named is Mus musculus. The data set can be described thus: Biodistribution in mouse B16F0 cells bearing C57B16 mouse tumor at 1.26 to 5.29 MBq, iv after 7 days. It is filed as ADME, organism-based, Neoplasm. As to conditions: in vivo, 168 h.
The subject of data set [7] is Mus musculus. The data set can be described thus: Biodistribution in mouse B16F0 cells bearing C57B16 mouse tumor at 1.26 to 5.29 MBq, iv after 1 hr. It is filed as ADME, organism-based, Neoplasm. Conditions: in vivo.
Data set [8] has as its system Mus musculus. The data set can be described thus: Biodistribution in mouse B16F0 cells bearing C57B16 mouse tumor at 1.26 to 5.29 MBq, iv after 10 days. Type of data set: ADME, organism-based, Neoplasm. As to conditions: in vivo, 240 h.
Data set [9] has as its system Mus musculus. The data set can be described thus: Biodistribution in mouse B16F0 cells bearing C57B16 mouse tumor at 1.26 to 5.29 MBq, iv after 72 hrs. It is filed as ADME, organism-based, Neoplasm. Conditions: in vivo.
Data set [10] deals with Mus musculus. The data set can be described thus: Biodistribution in mouse B16F0 cells bearing C57B16 mouse tumor at 1.26 to 5.29 MBq, iv after 3 hrs. Type of data set: ADME, organism-based, Neoplasm. Conditions: in vivo.
Data set [11] deals with Mus musculus. The data set can be described thus: Biodistribution in mouse B16F0 cells bearing C57B16 mouse tumor at 1.26 to 5.29 MBq, iv after 14 days. It is filed as ADME, organism-based, Neoplasm. Conditions: in vivo, 336 h.
The test system of data set [12] is Nucleic Acid. The data set can be described thus: Ratio of drug uptake in tumor to muscle in mouse B16F0 cells bearing C57B16 mouse at 2.7 MBq, iv after 1 hr. Conditions: in vivo. Type of data set: ADME, organism-based.
A short description of data set [13]: Biodistribution in mouse B16F0 cells bearing C57B16 mouse urine at 2.7 MBq, iv after up to 82 hrs. It is filed as ADME, organism-based. As to conditions: in vivo.
The nature of data set [14]: Biodistribution in mouse B16F0 cells bearing C57B16 mouse feces at 2.7 MBq, iv after up to 24 hrs. It is filed as ADME, organism-based. As to conditions: in vivo.
The nature of data set [15]: Biodistribution in mouse B16F0 cells bearing C57B16 mouse urine at 2.7 MBq, iv after up to 24 hrs. It is filed as ADME, organism-based. As to conditions: in vivo.
Data set [16] in a line: Biodistribution in mouse B16F0 cells bearing C57B16 mouse feces at 2.7 MBq, iv after up to 72 hrs. Type of data set: ADME, organism-based. As to conditions: in vivo.
The subject of data set [17] is Mus musculus. The data set can be described thus: Biodistribution in mouse B16F0 cells bearing C57B16 mouse throat at 2.7 MBq, iv after 1 hr. Type of data set: ADME, organism-based. As to conditions: in vivo.
The test system of data set [18] is Nucleic Acid. The data set can be described thus: Ratio of drug uptake in tumor to muscle in mouse B16F0 cells bearing C57B16 mouse at 2.7 MBq, iv after 3 hrs. Conditions: in vivo. Type of data set: ADME, organism-based.
The subject of data set [19] is Mus musculus. The data set can be described thus: Biodistribution in mouse B16F0 cells bearing C57B16 mouse throat at 2.7 MBq, iv after 10 days. Type of data set: ADME, organism-based. As to conditions: in vivo, 240 h.

In the case of `CCN(CCNC(=O)c1cnc2cc([131I])ccc2n1)CCOc1cccnc1F.Cl.Cl`, the Time in [1] was found to be 3.8 days. Moreover, the Drug uptake in the data set on Mus musculus [2] is 1.12 Gy/MBq.

In the case of `CCN(CC)Cc1ccnc(F)c1CNC(=O)c1cnc2cc([125I])ccc2n1.Cl.Cl`, the Drug uptake with Mus musculus [3] amounted to 6.4 % ID/g; in the data set on Mus musculus [4], 2.4 % ID/g; with Mus musculus [5], 6.7 % ID/g; with Mus musculus [6] it was 1.5 % ID/g; in the data set with Mus musculus [7] it was 5.6 % ID/g; in the data set with Mus musculus [8], 0.8 % ID/g. In addition, the Drug uptake with Mus musculus [9] stood at 4.1 % ID/g; in the data set with Mus musculus [10] it was 6.5 % ID/g; in the data set with Mus musculus [11], 0.7 % ID/g.

`CCN(CC)CCNC(=O)c1cnc2cc([131I])ccc2n1.Cl.Cl`: in the data set with Mus musculus [2], the Drug uptake is listed as 1.71 Gy/MBq.

In the case of `CCN(CCNC(=O)c1ccnc(F)c1)CCNC(=O)c1cnc2cc([125I])ccc2n1.Cl.Cl`, the Drug uptake with Mus musculus [3] was 12.1 % ID/g; in the data set on Mus musculus [4] it was 5.1 % ID/g; in the data set with Mus musculus [5] it was 12.1 % ID/g; in the data set with Mus musculus [7], 9.6 % ID/g; in the data set on Mus musculus [9], 9.6 % ID/g; in the data set with Mus musculus [10], 8.8 % ID/g.

On to `CCN(CCNC(=O)c1cn2cc([125I])ccc2n1)CCOc1cccnc1F.Cl.Cl`, for which the Drug uptake in the data set on Mus musculus [3] came to 15.6 % ID/g; with Mus musculus [4] it was 6.4 % ID/g; in the data set on Mus musculus [5] it was 13.4 % ID/g; in the data set with Mus musculus [6] it was 3.9 % ID/g; with Mus musculus [7], 13.2 % ID/g; in the data set with Mus musculus [8], 2.3 % ID/g. In addition, the results for the Drug uptake in the data set with Mus musculus [9], with Mus musculus [10] and in the data set on Mus musculus [11] were 8.6 % ID/g, 13.1 % ID/g and 1.6 % ID/g, respectively.

With `CCN(CCNC(=O)c1cnc2cc([125I])ccc2n1)CCNc1cccc(F)n1.Cl.Cl`, the Drug uptake with Mus musculus [3] is 8.6 % ID/g; with Mus musculus [4], 2.6 % ID/g; in the data set with Mus musculus [5], 12.5 % ID/g; with Mus musculus [6] it was 1.5 % ID/g; in the data set with Mus musculus [7], 13.1 % ID/g; in the data set on Mus musculus [8], 0.8 % ID/g. The Drug uptake worked out at 5.7 % ID/g with Mus musculus [9], 13.7 % ID/g with Mus musculus [10] and 0.4 % ID/g with Mus musculus [11].

As to `CCN(CCNC(=O)c1ccc2cc([125I])ccc2n1)CCOc1cccnc1F.Cl.Cl`, the Drug uptake is given as 6.3 % ID/g in the data set with Mus musculus [3]; 2.3 % ID/g with Mus musculus [4]; 9.7 % ID/g in the data set with Mus musculus [5]; 1.1 % ID/g with Mus musculus [6]; 10.7 % ID/g in the data set with Mus musculus [7]; 0.4 % ID/g in the data set on Mus musculus [8]. Further, the Drug uptake is listed as 3.2 % ID/g with Mus musculus [9], 10.8 % ID/g in the data set on Mus musculus [10] and 0.2 % ID/g in the data set with Mus musculus [11].

Consider `CCN(CCNC(=O)c1cnc2cc([125I])ccc2n1)Cc1ccnc(F)c1.Cl.Cl`, for which the Drug uptake in the data set with Mus musculus [3] was found to be 16 % ID/g; in the data set with Mus musculus [4], 7.1 % ID/g; with Mus musculus [5], 15.4 % ID/g; in the data set with Mus musculus [7], 10.3 % ID/g; with Mus musculus [8], 1.9 % ID/g; in the data set with Mus musculus [9], 10 % ID/g. For the same molecule, the Drug uptake with Mus musculus [10] stood at 12 % ID/g; in the data set with Mus musculus [11], 0.8 % ID/g.

Regarding `CCN(CCNC(=O)c1cnc2cc([125I])ccc2n1)CCOc1cccnc1F.Cl.Cl`, the Drug uptake in the data set on Mus musculus [3] is 18.2 % ID/g; in the data set with Mus musculus [4] it was 5.2 % ID/g; in [13], 45.1 %ID; in the data set with Mus musculus [5], 18.8 % ID/g; in data set [14], 36.1 %ID; in [15], 38.1 %ID. Also, the Drug uptake in data set [16] is 18.7 %ID; in the data set with Mus musculus [6], 3.2 % ID/g; in the data set on Mus musculus [17], 1.5 %ID; in the data set on Mus musculus [7] it was 12.7 % ID/g; in the data set with Mus musculus [8], 1.7 % ID/g; with Mus musculus [9], 10.3 % ID/g. Moreover, the Drug uptake in the data set with Mus musculus [19] came out at 0.1 %ID; in the data set with Mus musculus [10], 20.2 % ID/g; with Mus musculus [11] it was 0.6 % ID/g. The Ratio is 23 in the data set on Nucleic Acid [12] and 37 with Nucleic Acid [18].
